Data on seven molecules can be found in patent publication US6469174B1, “Substituted pyrrolobenzimidazoles for treating inflammatory diseases” (Ortho-McNeil Pharmaceutical, Inc., priority 1998, dated 2002).

Assay [1] concerns TNF-α. The assay can be described thus: In vitro whole cell assay: LPS-stimulated TNF-α production in PBMC (ELISA). Format: cell-based. The note with it: LPS-stimulated human PBMC. As to the method: In addition to the enzyme assay, many of the compounds of the invention were tested in an in vitro whole cell assay using peripheral blood mononuclear cells (“PBMC”) which were obtained from human blood as follows. Freshly obtained venous blood was anticoagulated with heparin, diluted with an equal volume of phosphate buffered saline (“PBS”) and placed in a sterile tube or other container. Aliquots (30 mL) of this mixture were transferred to centrifuge tubes which were underlaid with Ficoll-Hypaque (15 mL). The prepared tubes were centrifuged at 400×g without braking for 30 minutes at room temperature. Approximately ½ to ⅔ of the platelet layer above the mononuclear cell band was removed with a pipet. The majority of the mononuclear cell layer was carefully removed using a pipet and these PBMC's were diluted with PBS and spun at 600×g for 15 minutes. The resulting PBMC's were washed with another portion of PBS and spun at 400×g for 10 minutes at room temperature. The recovered pellets were diluted in low endotoxin RPMI/1% FCS culture medium and gave a cell concentration of 0.5-2.0×10^6 PBMC/ mL. A small volume of the suspension was removed for counting on a hemocytometer and the remaining preparation was centrifuged at 200×g for 15 minutes at room temperature. The recovered pelleted PBMC's were resuspended in RPMI/1% FCS to a concentration of 1.67×10^6/mL.
To run the assay, the PBMC suspension (180 μL) was transferred to duplicate wells of a 96-well flat-bottom microtiter plate and incubated for 1 hour at 37° C. A solution of test compound (10 μL: prepared at 20×the desired final concentration) was added to each well and the plate was incubated for 1 hour at 37° C. A solution (10 μL) of LPS in RPMI/1% FCS (200 ng/mL) was added and the wells were incubated overnight at 37° C. The supernatant (100 μL) was removed from each well and diluted with RPMI/1% FCS (400 μL). The samples were analyzed for TNF-α using a commercial ELISA kit (Genzyme).
Certain compounds of the invention are listed in Tables A and B. The compounds were tested for their ability to inhibit TNF-α in vitro. The data are listed as an IC50 or as the % inhibition at a given concentration.

In another assay the target is p38 (Homo sapiens, UniProt Q16539). The assay can be described thus: In vitro enzyme assay: inhibition of p38 activity. Format: biochemical.
Sequence of p38 (Q16539 whole entry): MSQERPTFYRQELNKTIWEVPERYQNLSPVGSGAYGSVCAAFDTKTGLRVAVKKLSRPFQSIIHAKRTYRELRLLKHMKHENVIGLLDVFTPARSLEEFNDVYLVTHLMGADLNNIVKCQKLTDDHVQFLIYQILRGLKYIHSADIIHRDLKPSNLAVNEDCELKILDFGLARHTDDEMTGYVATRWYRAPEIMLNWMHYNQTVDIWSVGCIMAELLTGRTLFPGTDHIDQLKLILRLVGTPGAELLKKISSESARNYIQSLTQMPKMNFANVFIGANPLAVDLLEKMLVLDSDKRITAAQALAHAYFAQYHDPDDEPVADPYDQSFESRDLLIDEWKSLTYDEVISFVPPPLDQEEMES
Assay [2] concerns TNF-α. The assay can be described thus: In vivo LPS-induced TNF-α production, oral dosing. The note with it: mouse, LPS 1 mg/kg i.p. Here is the method:
Mice (BALB/cJ females, Jackson Laboratories) or rats (Lewis males, Charles River) were fasted for 30 minutes prior to oral dosing with 5-10 mL/kg of test compound at 5-50 mg/kg. Thirty minutes after dosing, the animals were injected intraperitoneally with LPS at 1 mg/kg and returned to their cages for 1 hour. Animals were anesthetized by CO2, exsanguinated by cardiac puncture and whole blood collected (0.1-0.7 mL). The blood was allowed to clot and serum was transferred to a centrifuge tube. This sample was centrifuged, serum was collected, aliquoted and frozen at −80° C. Samples were tested by commercial ELISA's for TNF-α (Endogen for mouse TNF-α and Biosource for rat TNF-α).

The mark [3] stands for this setting: Table B, read-out: IC50 (TNF-α in vitro).

Like-named read-outs stand apart in the source and are kept apart here.

Procedure for p38: Compounds of the invention were measured for their ability to inhibit the activity of p38 by the following in vitro assay.
A solution (38 μL) of purified recombinant p38 (where the amount of enzyme was determined empirically considering the linear range of the assay and the acceptable signal to noise ratio; 6×His-p38 expressed in E. coli), myelin basic protein substrate (also determined empirically), and a buffer of pH 7.5 (Hepes:25 mM, MgCl2:10 mM, MnCl2:10 mM) were added to 92 wells of a 96-well round bottom polypropylene plate. The remaining wells were used for control (“CTRL”) and background (“BKG”).
The CTRL was prepared with the enzyme, substrate buffer and 2% DMSO, and the BKG was prepared with substrate buffer and 2% DMSO. […]
The contents of each well were transferred to the wells of a 96-well filterplate (Millipore, MultiScreen-DP) and the filterplate was placed on a vacuum manifold, fitted with a waste collection tray. […] MicroScint-20 scintillant was added, the plates were sealed using Topseal-S sheets and counted in a Packard TopCount scintillation counter using a ^33P liquid program with color quench correction, where the output is in color quench-corrected cpm.
The % inhibition of the test compounds was calculated by the following formula: % inhibition=[1−(sample −BKG)/(CTRL−BKG)]×100.

As usually defined, the IC50 is the midpoint of a concentration-inhibition curve. As to `Fc1ccc(-c2[nH]c3ccc4[nH]c(Cc5ccccc5)nc4c3c2-c2ccncc2)cc1` [Compound 1, 1,6-Dihydro-7-(4-fluorophenyl)-8-(4-pyridyl)-2-phenylmethyl-pyrrolo [3,2-e] benzimidazole], in the assay on TNF-α [1] (Table A, read-out: TNF-α IC50), the IC50 came to 7 nM. The inhibition at 20 µM against p38 came out at 44%. The “inhibition of TNF-α” value with TNF-α [2] (10 mg/kg) stood at 74%; in the assay with TNF-α [2] (25 mg/kg), 91%.
Consider `Fc1ccc(-c2[nH]c3ccc4nc(-c5ccccc5)[nH]c4c3c2-c2ccncc2)cc1` [Compound 2, 1,6-dihydro-7-(4-fluorophenyl)-8-(4-pyridyl)-2-phenyl-pyrrolo[3,2-e]benzimidazole], for which, in the assay with TNF-α [1] (Table A, read-out: TNF-α IC50), the IC50 turned out to be 20 nM.
As to `CCCCc1nc2ccc3[nH]c(-c4ccc(F)cc4)c(-c4ccncc4)c3c2[nH]1` [Compound 4, 1,6-dihydro-7-(4-fluorophenyl)-8-(4-pyridyl)-2-butyl-pyrrolo[3,2-e]benzimidazole], the IC50 in the assay with TNF-α [1] (Table A, read-out: TNF-α IC50) came out at 45 nM.
Regarding `Fc1ccc(-c2[nH]c3ccc4nc(CCc5ccccc5)[nH]c4c3c2-c2ccncc2)cc1` [Compound 7, 1,6-dihydro-7-(4-fluorophenyl)-8-(4-pyridyl)-2-(2-phenylethyl)-pyrrolo[3,2-e]benzimidazole], the IC50 in the assay on TNF-α [1] (Table A, read-out: TNF-α IC50) was found to be 50 nM.
As for `Fc1ccc(-c2c(-c3ccncc3)[nH]c3ccc4nc[nH]c4c23)cc1` [Compound 9, 1,6-dihydro-7-(4-pyridyl)-8-(4-fluorophenyl)-pyrrolo[3,2-e]benzimidazole], the IC50 with TNF-α [1] (setting [3]) was 15 nM.
With `Fc1ccc(-c2c(-c3ccncc3)[nH]c3ccc4nc(Cc5ccccc5)[nH]c4c23)cc1` [Compound 10, 1,6-dihydro-7-(4-pyridyl)-8-(4-fluorophenyl)-2-phenylmethyl-pyrrolo[3,2-e]benzimidazole], the IC50 with TNF-α [1] (setting [3]) was over 400 nM.
In the case of `Fc1ccc(-c2c(-c3ccncc3)[nH]c3ccc4c(ncn4CCCc4ccccc4)c23)cc1` [Compound 11, 3,6-dihydro-8-(4-fluorophenyl)-3-(3-phenylpropyl)-7-(4-pyridyl)-pyrrolo[3,2-e]benzimidazole], in the assay with TNF-α [1] (@ 400 nM, Table B, read-out: % inhibition of TNF-α at a given concentration), the inhibition at 0.4 µM was determined as 0%.
